# Legend:
# Type in all cases: in vivo, human
# [1] = Treatment with diclofenac for 6 months in the presence of the TIGR mt-1 mutation, mean diurnal IOP
# From the text: After treatment for 6 months with varying amounts of diclofenac in the presence of the mt-1 mutation, the following results are observed: […]
# [2] = Treatment with diclofenac in glaucomic patients possessing both the mt-1 and mt-11 mutations, mean diurnal IOP; details: 0.1% diclofenac
# [3] = Treatment with diclofenac in glaucomic patients having the TIGRmt-11 mutation, mean diurnal IOP; details: 0.1% diclofenac
# From the text: The same procedures described in Example II were followed with respect to administering Diclofenac to glaucomic patients having the […]-11 mutation.
# [4] = 0.03% diclofenac, mt-1 mutation present
# [5] = 0.06% diclofenac, mt-1 mutation present
# [6] = 0.1% diclofenac, mt-1 mutation present
compound,measurement,setting,value
O=C(O)Cc1ccccc1Nc1c(Cl)cccc1Cl [Diclofenac],Percentage of Patients Exhibiting a Decrease in Diurnal IOP >= 2 mm Hg After 6 Months of Treatment,[1]; [4],36%
same,Percentage of subjects exhibiting a Mean Diurnel IOP < 22 mm Hg After 6 Months of Treatment,[1]; [4],55%
same,Percentage of Patients Exhibiting a Decrease in Diurnal IOP >= 2 mm Hg After 6 Months of Treatment,[1]; [5],40%
same,Percentage of subjects exhibiting a Mean Diurnel IOP < 22 mm Hg After 6 Months of Treatment,[1]; [5],60%
same,Mean Change in Diurnal IOP at 6 Months,"[1]; 0.1% diclofenac, mt-1 mutation absent",−1.5 mm Hg
same,Mean Change in Diurnal IOP at 6 Months,[1]; [6],−2.1 mm Hg
same,Percentage of Patients Exhibiting a Decrease in Diurnal IOP >= 2 mm Hg After 6 Months of Treatment,[1]; [6],64%
same,Percentage of subjects exhibiting a Mean Diurnel IOP < 22 mm Hg After 6 Months of Treatment,[1]; [6],64%
same,Mean Change in Diurnal IOP at 6 Months,[2]; mt-1 and mt-11 mutations absent,−0.6 mm Hg
same,Mean Change in Diurnal IOP at 6 Months,[2]; mt-1 and mt-11 mutations present,−2.9 mm Hg
same,Mean Change in Diurnal IOP at 6 Months,[3]; mt-11 mutation absent,−1.3 mm Hg
same,Mean Change in Diurnal IOP at 6 Months,[3]; mt-11 mutation present,−2.0 mm Hg
